In patent US6720423B2, “Dihydrobenzofuran and dihydrobenzothiophene 2,4-pentadienoic acid derivatives having selective activity for retinoid X (RXR) receptors” (Allergan, Inc., priority 2002, dated 2004):

Experiments:
RXRβ = molecular target: T1, RXRβ (UniProt P28704); assay: receptor transactivation assay, RXRβ; type: cell-based; design: RXR Trans; other: RXRβ; first entry of cell; details: for EC50: first entry of cell, read-out: RXR Trans. EC50 (nM) β; for RXR Trans. β, number in parentheses after EC50: parenthesised number, not defined in the patent
T1 sequence (P28704 1-520): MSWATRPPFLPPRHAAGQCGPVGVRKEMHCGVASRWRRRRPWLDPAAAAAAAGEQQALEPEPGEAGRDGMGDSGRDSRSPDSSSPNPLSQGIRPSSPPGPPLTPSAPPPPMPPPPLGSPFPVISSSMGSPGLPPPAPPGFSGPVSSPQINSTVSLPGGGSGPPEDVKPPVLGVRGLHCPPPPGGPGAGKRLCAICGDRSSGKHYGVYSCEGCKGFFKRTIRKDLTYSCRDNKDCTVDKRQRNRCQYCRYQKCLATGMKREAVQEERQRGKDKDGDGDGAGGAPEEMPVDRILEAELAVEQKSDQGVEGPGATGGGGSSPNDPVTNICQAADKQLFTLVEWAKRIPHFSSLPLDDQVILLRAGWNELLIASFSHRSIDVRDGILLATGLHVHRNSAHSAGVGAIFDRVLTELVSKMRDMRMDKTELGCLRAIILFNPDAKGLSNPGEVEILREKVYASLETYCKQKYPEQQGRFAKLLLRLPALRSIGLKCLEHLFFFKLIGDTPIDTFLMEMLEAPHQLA
From the text: (§1) A holoreceptor transactivation assay and a ligand binding assay which measure the antagonist/agonist like activity of the compounds of the invention, or their ability to bind to the several retinoid receptor subtypes, respectively, are described in published PCT Application No. WO WO93/11755 (particularly on pages 30-33 and 37-41) published on Jun. 24, 1993, the specification of which is also incorporated herein by reference. A detailed experimental procedure for holoreceptor transactivations has been described by Heyman et al. Cell 68, 397-406, (1992); Allegretto et al. J. Biol. Chem. 268, 26625-26633, and Mangelsdorf et al. The Retinoids: Biology, Chemistry and Medicine, pp 319-349, Raven Press Ltd., New York, which are expressly incorporated herein by reference. The results obtained in this assay are expressed in EC50 numbers, as they are also in the chimeric receptor transactivation assay. The results of ligand binding assay are expressed in Kd numbers. (See Cheng et al. Biochemical Pharmacology Vol. 22 pp 3099-3108, expressly incorporated herein by reference.)

RXRα = molecular target: T2, RXRα (Homo sapiens, UniProt P19793); assay: ligand binding assay, RXRα; details: last entry of cell, read-out: RXR Bind Ki (nM) α
T2 sequence (P19793 1-462): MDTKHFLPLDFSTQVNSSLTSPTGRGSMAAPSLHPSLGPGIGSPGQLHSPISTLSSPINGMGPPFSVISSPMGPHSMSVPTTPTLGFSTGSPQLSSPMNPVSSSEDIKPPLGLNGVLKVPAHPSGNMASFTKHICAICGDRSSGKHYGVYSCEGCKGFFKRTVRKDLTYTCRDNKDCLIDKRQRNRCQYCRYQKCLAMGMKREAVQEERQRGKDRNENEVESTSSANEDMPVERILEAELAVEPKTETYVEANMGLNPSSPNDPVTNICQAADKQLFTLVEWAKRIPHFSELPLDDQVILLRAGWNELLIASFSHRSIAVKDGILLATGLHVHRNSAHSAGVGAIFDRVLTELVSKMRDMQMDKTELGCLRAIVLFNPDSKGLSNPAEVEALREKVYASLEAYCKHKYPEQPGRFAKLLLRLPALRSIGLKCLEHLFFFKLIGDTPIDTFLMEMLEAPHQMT
From the text: as §1

RARα = molecular target: T3, RARα (Homo sapiens, UniProt P10276); assay: ligand binding assay, RARα; details: second entry of cell, read-out: RAR Bind. Ki (nM) α
T3 sequence (P10276 1-462): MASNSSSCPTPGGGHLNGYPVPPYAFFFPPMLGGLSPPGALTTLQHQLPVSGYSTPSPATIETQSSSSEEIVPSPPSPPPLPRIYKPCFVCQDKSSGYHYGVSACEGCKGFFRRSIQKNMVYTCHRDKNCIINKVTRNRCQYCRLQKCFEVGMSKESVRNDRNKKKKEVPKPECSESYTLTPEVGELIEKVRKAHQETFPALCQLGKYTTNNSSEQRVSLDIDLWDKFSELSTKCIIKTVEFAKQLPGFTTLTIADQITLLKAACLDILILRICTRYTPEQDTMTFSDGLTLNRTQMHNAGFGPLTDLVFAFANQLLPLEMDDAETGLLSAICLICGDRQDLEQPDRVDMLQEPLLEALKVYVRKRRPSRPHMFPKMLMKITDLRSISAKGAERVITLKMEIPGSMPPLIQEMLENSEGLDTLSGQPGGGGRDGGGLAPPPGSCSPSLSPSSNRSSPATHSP
From the text: as §1

| Structure (SMILES) | EC50 (RXRβ) [nM] | RXR Trans. β, number in parentheses after EC50 (RXRβ) | Ki (RXRα) [nM] | Ki (RARα) [nM] |
| --- | --- | --- | --- | --- |
| CC(/C=C/[C@@H]1C[C@]1(C)c1cc(CC2CCCCC2)c2c(c1)C(C)(C)CO2)=C\C(=O)O [Compound 16, (6S,7S)-7-[5-(7-Cyclohexylmethyl-3,3-dimethyl-2,3-dihydro-benzofuranyl)]-6,7-methano-3-methyl-octa-2E,4E-dienoic Acid] | 1.15 | 85 | 0.3 | 8800 |
| CC(/C=C/[C@@H]1C[C@]1(C)c1cc(-c2ccc(C(C)(C)C)cc2)c2c(c1)C(C)(C)CO2)=C\C(=O)O [Compound 30, 5-{(1S, 2S)-2-[7-(4-tert-Butyl-phenyl)-3,3-dimethyl-2,3-dihydro-benzofuran-5-]-2-methyl-cyclopropyl}-3-methyl-pent-2E,4E-dienoic Acid] | > 1000 | 50 | 129 | > 10000 |
| CC(/C=C/[C@@H]1C[C@]1(C)c1cc(-c2ccccc2)c2c(c1)C(C)(C)CO2)=C\C(=O)O [Compound 22, 6S,7S)-7-[5-(3,3-Dimethyl-7-phenyl-2,3-dihydro-benzofuranyl)1-6,7-methano-3-methyl-octa-2E,4E-dienoic acid] | 28.4 | 75 | 2.3 | > 10000 |
| CC(/C=C/[C@@H]1C[C@]1(C)c1cc(-c2ccc(F)cc2)c2c(c1)C(C)(C)CO2)=C\C(=O)O [Compound 34, (E)-3-((E)-2-{(1S,2S)-2-[7-(4-Fluoro-phenyl)-3,3-dimethyl-2,3-dihydro-benzofuran-5-yl]-2-methyl-cyclopropyl}-vinyl)-but-2-enoic acid] | 4.55 | 93 | 0.5 | 23000 |
| CCc1cc([C@@]2(C)C[C@H]2/C=C/C(C)=C/C(=O)O)cc2c1OCC2(C)C [Compound 6] | 2.8 | 75 | 0.72 | > 30000 |
| CC(/C=C/[C@@H]1C[C@]1(C)c1cc(-c2c(C)cccc2C)c2c(c1)C(C)(C)CO2)=C\C(=O)O [Compound 24, 5-{(1 S 2S)-2-[7-(2,6-Dimethyl-phenyl)-3,3-dimethyl-2,3-dihydro-benzofuran-5-yl]-2-methyl-cyclopropyl}-3-methyl-penta-2E,4E-dienoic acid] | 6.7 | 125 | 0.7 | > 10000 |
| CCCCCCCc1ccccc1-c1cc([C@@]2(C)C[C@H]2/C=C/C(C)=C/C(=O)O)cc2c1OCC2(C)C [Compound 28] | > 1000 | – | 35 | 2620 |

Further lines, results first:

| EC50 (RXRβ) [nM] | RXR Trans. β, number in parentheses after EC50 (RXRβ) | Ki (RXRα) [nM] | Ki (RARα) [nM] | Structure (SMILES) |
| --- | --- | --- | --- | --- |
| 2.8 | 96 | 1.9 | 12000 | CCCCCCc1cc([C@@]2(C)C[C@H]2/C=C/C(C)=C/C(=O)O)cc2c1OCC2(C)C [Compound 18, (6S,7S)-7-[5-(3,3-Dimethyl-7-hexyl-2,3-dihydro-benzofuranyl)]-6,7-methano-3-methyl-octa-2E,4E-dienoic acid] |
| 0.66 | 110 | 1.7 | 42000 | CC(/C=C/[C@@H]1C[C@]1(C)c1cc(C(C)C)c2c(c1)C(C)(C)CO2)=C\C(=O)O [Compound 8, (6S,7S)-7-[5-(3,3-Dimethyl-7-iso-propyl-2,3-dihydro-benzofuranyl)]-6,7-methano-3-methyl-octa-2E,4E-dienoic Acid] |
| 1360 | – | 306 | > 10000 | CCCCC(O)CCc1cc([C@@]2(C)C[C@H]2/C=C/C(C)=C/C(=O)O)cc2c1OCC2(C)C (stereo partly drawn) [Compound 38, (E)-3-((E)-2-{(1S,2S)-2-[7-(3-Hydroxy-heptyl)-3,3-dimethyl-2,3-dihydro-benzofuran-5-yl]-2-methyl-cyclopropyl}-vinyl)-but-2-enoic acid] |
| > 1000 | – | 114 | > 10000 | CC(/C=C/[C@@H]1C[C@@H]1c1ccc2c(c1)C(C)(C)CO2)=C\C(=O)O [Compound 36, (E)-3-{(E)-2-F[(1S,2S)-2-(3,3-Dimethyl-2,3-dihydro-benzofuran-5-yl)-cyclopropyl]-vinyl}-but-2-enoic acid] |
